Results published in patent US9579315B2, “Methods of treating obstructive lung diseases using bitter tastants” (UNIVERSITY OF MARYLAND, BALTIMORE, priority 2010, dated 2017).
Read-outs that look alike come from different tables or passages of the source.

What was measured:
[1] = system: human airway smooth muscle cells; assay: [Ca2+]i increase in cultured primary human airway smooth muscle cells (Fluo-4 AM); assay type: cell-based; conditions: for effect on saccharin-elicited [Ca2+]i increase: absence of extracellular calcium, FIG. 1d; for [Ca2+]i response in human ASM cells: 1.0 mM tastant, FIG. 1c
Protocol: (§1) Dose response curves for [Ca^2+]i and ex vivo tracheal ring studies were analyzed by iterative non-linear (sigmoidal) least squares fitting. Results from all studies were compared using paired or unpaired two-way t-tests (depending on study design), with P<0.05 considered significant. When multiple comparisons were sought, an ANOVA with post-hoc t-tests was utilized with a correction for multiple comparisons. Data are presented as mean±standard error.

[2] = system: isolated human ASM cells; assay: Magnetic twisting cytometry, stiffness of isolated human ASM cells; assay type: cell-based; conditions: for effect on saccharin-promoted relaxation of isolated ASM: 1 mM saccharin, U73122 1 μM, H89 100 nM, IbTx and ChTx 100 nM (FIG. 7b); for change in single-cell stiffness from baseline: isolated human ASM cells, FIG. 7a
Protocol: Dynamic changes in baseline cell stiffness were measured as an indicator of contraction and relaxation of isolated human ASM cells using magnetic twisting cytometry as described in detail previously^15. In brief, Arg-Gly-Asp coated ferromagnetic microbeads bound to adherent human ASM cells were magnetized horizontally and then twisted in a vertically aligned homogenous magnetic field that was varying sinusoidally in time. Sinusoidal twisting magnetic field caused both a rotation and a pivoting displacement of the bead: such forced bead motions are, in turn, impeded by internal stresses developed by the cell. Lateral bead displacements in response to the resulting oscillatory torque were detected with a spatial resolution of ˜5 nm, and the ratio of specific torque to bead displacements was computed and expressed as the cell stiffness in units of Pascal/nm (Pa/nm). For each individual ASM cell, baseline stiffness was measured for the first 60 sec, and after drug addition stiffness was measured continuously for the next 540 sec. […] For each cell, stiffness was normalized to its baseline stiffness prior to the agonist stimulation.

[3] = system: ASM cells; assay: Membrane potential of ASM cells (membrane potential-sensitive fluorescent dye); assay type: cell-based, human; conditions: for change of membrane potential: 60 mM KCl, 1.0 μM histamine, 1 mM saccharin or chloroquine
Protocol: Primary human ASM cells were obtained from a commercial source (Clonetics) and maintained as described^31, with experiments performed using cells at passages 3-8. […] The effects of bitter tastants on membrane potential of whole ASM cells was measured using a membrane potential-sensitive fluorescent dye (Molecular Devices) as described^19 in a 96 well plate format with 50,000 cells/well. Excitation was at 530 nm and emission acquired at 565 nm. Data were collected in real time for 300 sec and are shown as relative fluorescent units.

[4] = system: intact mouse tracheas; assay: Ex vivo relaxation of intact mouse tracheal rings (isometric myograph); conditions: for relaxation of airways contracted by serotonin: 1.0 mM serotonin, FIG. 4b; for EC50: Mus musculus
Protocol: Briefly, tracheal rings fitted between a fixed wire and a transducer-coupled wire were maintained in Krebs buffer at 37° C. with aeration from 95% O2, 5% CO2.
as §1

[5] = system: H292 cells; assay: [Ca2+]i-stimulated dose-response in H292 cells; assay type: cell-based, human; conditions: for EC50: Homo sapiens
Protocol: (§2) In one example, cells are grown in multi-well dishes, loaded with a fluorescence-based calcium indicator dye, and test compounds are added with subsequent monitoring of the change in fluorescence indicative of a change in intracellular calcium [Ca^2+]i release. Test compounds can include, e.g., those with structural similarities to the known bitter taste receptor agonists or antagonists.
(§3) If appropriate, airway cells can also be tested using them within tracheal rings, as described herein and as is well-known in the art.

[6] = system: BEAS2B cells; assay: [Ca2+]i-stimulated dose-response in BEAS2B cells; assay type: cell-based, human
Protocol: as §2, §3

[7] = system: mouse model of asthma; assay: Airway resistance in control and ovalbumin-sensitized mice (flexiVent); assay type: in vivo; conditions: for decrease in airway resistance: aerosol during methacholine bronchoconstriction, quinine 150 μg, denatonium 200 μg
Protocol: Sensitization of 6-week old BALB/c mice was carried out by i.p. injections of […] ovalbumin in 200 μl alum, or alum alone (control) on days 0 and 14. Mice were then challenged with 1.0% aerosolized ovalbumin on days 19, 21 and 24. Twenty-four hours after the last challenge, mice were sedated, intubated and the flexiVent system (SCIREQ) was utilized for ventilation and measurement of airway resistance as previously described^40. Ventilation was at 150 breaths/min with a tidal volume of 240 μl and positive end expiratory pressure of 2.5 cm H2O. After stabilization, mice were challenged with doses of aerosolized methacholine (2.0, 4.0, 8.0 and 16 mg/ml in the nebulizer) until the sustained airway resistance became ˜5-fold greater than baseline. Three minutes after the last […] inhalation, the bitter tastants quinine (150 μg) or denatonium (200 μg), or the β-agonist albuterol (3.0 μg) were administered by aerosol over 10 sec. Resistance measurements (Raw, cm H2O/ml/sec) were taken every 30 sec throughout the experiment.

[8] = system: human ASM cells; conditions: 0.3 mM saccharin, 1.0 μM histamine
[9] = system: human ASM cells; assay: PKA-mediated VASP phosphorylation, Western blot in human ASM cells; assay type: cell-based; conditions: 1.0 mM chloroquine or saccharin, 10 μM forskolin
Protocol: Primary human ASM cells were obtained from a commercial source (Clonetics) and maintained as described^31, with experiments performed using cells at passages 3-8. These cells consisted of >95% airway smooth muscle as previously ascertained^31. For detecting changes in [Ca^2+]i attached cells in 96-well plates (80,000 cells/well) were loaded with Fluo-4 AM (BD Biosciences) with probenecid for one hour at 37° C. Receptor agonists were added at the indicated concentrations at 37° C. by an automated pipetting system in triplicate and the 525 nm signals were generated by excitation at 485 nm using a Flex Station II (Molecular Devices). Data was acquired every 1.5 sec for 60 sec. Unless otherwise stated, studies were performed in media containing 1.5 mM calcium. In some studies, ASM were transfected with T2R10 siRNA (Invitrogen) or a scrambled-sequence siRNA control by electroporation (Nucleofector, Lonza) using 4×10^6 cells and 4 μg of siRNA. Twenty-four hours later cells were transferred to the 96-well plates for the [Ca^2+]i assay. […] Samples were acetylated and cAMP measured by a highly sensitive ^125I-cAMP based radioimmunoassay as previously described^32. […] The effects of bitter tastants on membrane potential of whole ASM cells was measured using a membrane potential-sensitive fluorescent dye (Molecular Devices) as described^19 in a 96 well plate format with 50,000 cells/well. […]

Q: For `NCCOB(c1ccccc1)c1ccccc1` [2APB], which “effect on saccharin-elicited [Ca2+]i increase” value [1] is on record?
A: partially inhibited

Q: For `O=S(=O)(NCCNC/C=C/c1ccc(Br)cc1)c1cccc2cnccc12` [H89], which “effect on saccharin-promoted relaxation of isolated ASM” value [2] is on record?
A: not blocked

Q: For `[Cl-].[K+]` [KCl], which “change of membrane potential” value [3] is on record?
A: membrane depolarization

Q: `COC(=O)[C@@H](N)CCCNC(=N)N[N+](=O)[O-]` [L-NAME] was tested. Which “effect on bitter tastant-mediated airway relaxation” value [4] did it give?
A: not altered

Q: Which “[Ca2+]i response in human ASM cells” value [1] does the source give for `C[C@H](NC(=NCC(=O)O)Nc1ccc(C#N)cc1)c1ccccc1` [SC45647] here?
A: no response

Q: How did the “effect on chloroquine-mediated relaxation of intact airway rings” value ([4]; 10 μM thapsigargin pre-incubation, chloroquine 3.0 mM) turn out when `C/C=C(/C)C(=O)O[C@H]1C(C)=C2[C@H]([C@@H]1OC(=O)CCCCCCC)[C@@](C)(OC(C)=O)C[C@H](OC(=O)CCC)[C@@]1(O)[C@H]2OC(=O)[C@@]1(C)O` [Thapsigargin, thapsigargin] was run?
A: blocked

Q: What about the “effect on chloroquine and other bitter tastant-mediated [Ca2+]i stimulation” value ([1]; 10 μM thapsigargin pre-incubation 30 min) of the same molecule?
A: blocked

Q: What does the source list for `COc1ccc2c(c1)CC[C@@H]1[C@@H]2CC[C@]2(C)[C@@H](NCCCCCCN3C(=O)C=CC3=O)CC[C@@H]12` [U73122]?
A: effect on saccharin-elicited [Ca2+]i increase [1]: ablated; effect on saccharin-promoted relaxation of isolated ASM [2]: eliminated

Q: For `COc1cccc2c1cc([N+](=O)[O-])c1c(C(=O)O)cc3c(c12)OCO3` [aristocholic acid], which “[Ca2+]i response in human ASM cells” value [1] is on record?
A: [Ca^2+]i responses

Q: For `CCN(CC)CCCC(C)Nc1ccnc2cc(Cl)ccc12` (stereo not drawn) [chloroquine], which efficacy ([5]; H292 cells) is on record?
A: 37,136 fluorescence units

Q: And the EC50 ([5]; NCI-H292, read-out: potency, [Ca2+]i-stimulated dose-response curve)?
A: 74 µM

Q: And the “relaxation of airways contracted by serotonin” value [4]?
A: marked relaxation

Q: What about the EC50 ([4]; read-out: EC50 for relaxation, contraction stimulated by acetylcholine) of the same molecule?
A: 93 ± 4.3 µM

Q: What about the EC50 ([4]; read-out: EC50 for relaxation, contraction stimulated by serotonin) of the same molecule?
A: 110 ± 32 µM

Q: What about the “relaxation of acetylcholine-mediated constriction” value ([4]; submaximal dose of chloroquine (200 μM), 1.0 mM acetylcholine) of the same molecule?
A: ~67%

Q: What about the “[Ca2+]i response in human ASM cells” value [1] of the same molecule?
A: evoked increased [Ca^2+]i

Q: What about the EC50 ([1]; Homo sapiens, cultured ASM cells, FIG. 1a, read-out: EC50 for [Ca2+]i release) of the same molecule?
A: 70 ± 10 µM

Q: What about the “efficacy, net change in fluorescence units” value ([1]; human airway smooth muscle cells, FIG. 14) of the same molecule?
A: 84,317 fluorescence units

Q: What about the EC50 ([1]; human airway smooth muscle cells, FIG. 14, read-out: potency, [Ca2+]i dose-response curve) of the same molecule?
A: 70 µM

Q: What about the “change in single-cell stiffness from baseline” value (“change in single-cell stiffness” below) [2] of the same molecule?
A: resulted in ASM relaxation

Q: And the efficacy [6]?
A: 13,995 fluorescence units

Q: And the EC50 ([6]; Homo sapiens, BEAS-2B, read-out: potency, [Ca2+]i-stimulated dose-response curve)?
A: 90 µM

Q: What about the “change of membrane potential” value [3] of the same molecule?
A: membrane hyperpolarization

Q: Which “[Ca2+]i response in human ASM cells” value [1] does the source give for `COc1cc2c(c(OC)c1OC)-c1ccc(OC)c(=O)cc1[C@@H](NC(C)=O)CC2` [colchicine] here?
A: relatively low response

Q: Which “decrease in airway resistance” value ([7]; normal mice) does the source give for `CC[N+](CC)(CC(=O)Nc1c(C)cccc1C)Cc1ccccc1` [denatonium] here?
A: 44±6%

Q: And the “decrease in airway resistance” value ([7]; ovalbumin-sensitized mice)?
A: 57±4%

Q: And the “[Ca2+]i response in human ASM cells” value [1]?
A: evoked increased [Ca^2+]i

Q: `O=C1OC2(c3ccccc31)c1ccc(O)c(O)c1Oc1c2ccc(O)c1O` [gallein] was tested. Which “effect on saccharin-elicited [Ca2+]i increase” value [1] did it give?
A: ablated

Q: For `NCCc1c[nH]cn1` [histamine], which “spatial pattern of [Ca2+]i response” value [8] is on record?
A: rapid rise in [Ca^2+]i throughout the cell

Q: And the “change in single-cell stiffness” value [2]?
A: contraction

Q: What about the “change of membrane potential” value [3] of the same molecule?
A: membrane depolarization

Q: How did the “effect on bitter tastant-mediated airway relaxation” value [4] turn out when `COc1ccc2c(c1)c(CC(=O)O)c(C)n2C(=O)c1ccc(Cl)cc1` [indomethacin] was run?
A: not altered

Q: Which results are given for `CC(C)NCC(O)c1ccc(O)c(O)c1` (stereo not drawn) [isoproterenol]?
A: relaxation after chloroquine exposure, washout and acetylcholine re-challenge ([4]; maximal concentration of isoproterenol (30 μM)): 29±4.3%; maximal relaxation response, loss of active contraction / reduction in active tension ([4]; tracheas contracted with 1.0 mM acetylcholine): 30±9.2%; change in single-cell stiffness from baseline [2]: relaxation

Q: For `CC(=O)OC(C)C[N+](C)(C)C` (stereo not drawn) [methacholine], which “concentration of inhaled methacholine required to increase baseline airway resistance by 5-fold” value ([7]; non-sensitized mice) is on record?
A: 16 mg/mL

Q: And the “concentration of inhaled methacholine required to increase baseline airway resistance by 5-fold” value ([7]; ovalbumin-sensitized mice)?
A: 8 mg/mL

Q: What does the source list for `C=C[C@H]1C[N@@]2CC[C@H]1C[C@H]2[C@H](O)c1ccnc2ccc(OC)cc12` [quinine]?
A: efficacy ([5]; H292 cells): 133,201 fluorescence units; EC50 ([5]; NCI-H292, H292 cells, read-out: potency, [Ca2+]i-stimulated dose-response curve): 703 µM; decrease in airway resistance ([7]; normal mice): 53±2.96%; decrease in airway resistance ([7]; ovalbumin-sensitized mice): 50±8%; relaxation of airways contracted by serotonin [4]: marked relaxation; [Ca2+]i response in human ASM cells [1]: [Ca^2+]i responses

Q: With `O=C1NS(=O)(=O)c2ccccc21` [saccharin] as the molecule, how does the “[Ca2+]i response in human ASM cells” value [1] read?
A: evoked increased [Ca^2+]i

Q: What about the “change in single-cell stiffness” value [2] of the same molecule?
A: resulted in ASM relaxation

Q: What about the “PKA-mediated VASP phosphorylation” value [9] of the same molecule?
A: Neither chloroquine nor saccharin promoted VASP phosphorylation

Q: `OCc1ccccc1O[C@@H]1O[C@H](CO)[C@@H](O)[C@H](O)[C@H]1O` [salicin] was tested. Which “[Ca2+]i response in human ASM cells” value [1] did it give?
A: no response

Q: `OC[C@H]1O[C@H](O[C@]2(CCl)O[C@H](CCl)[C@@H](O)[C@@H]2O)[C@H](O)[C@@H](O)[C@H]1Cl` [sucralose] was tested. Which “[Ca2+]i response in human ASM cells” value [1] did it give?
A: no response

Q: `COC(=O)[C@@H]1[C@H]2C[C@H]3c4[nH]c5ccccc5c4CCN3C[C@@H]2CC[C@@H]1O` [yohimbine] was tested. Which “[Ca2+]i response in human ASM cells” value [1] did it give?
A: [Ca^2+]i responses

Q: For charybdotoxin, which “effect on saccharin-promoted relaxation of isolated ASM” value [2] is on record?
A: ablated

Q: Which results are given for “iberiotoxin (QFTDVDCSVSKECWSVCKDLFGVDRGKCMGKKCRCYQ; UniProt P24663 1-37, looked up) [specific BKCa channel antagonist]”?
A: effect on chloroquine-promoted relaxation in the isolated mouse airway ([4]; 1 mM chloroquine, 100 nM iberiotoxin pretreatment): attenuated; effect on saccharin-promoted relaxation of isolated ASM [2]: ablated; effect on bitter tastant-promoted membrane hyperpolarization ([3]; 100 nM iberiotoxin preincubation): completely inhibited
